The source of these data is article PMC12928571, “Idler Compounds: A Simple Protocol for Openly Sharing Fridge Contents for Cross-Screening” (Journal of Medicinal Chemistry, 2026).

Each structure is given as a SMILES string.

Data set [1] concerns chikungunya virus nsp2 helicase. The settings on record: from originating chikungunya virus nsp2 helicase project; cited from earlier work.
For data set [2], the system named is C. albicans (NCPF 3281). Briefly: Activity against C. albicans, microbroth growth inhibition (OD530). The class given is cell-based, Candida albicans. The settings on record: 100 μM; active when inhibition >80%.
The nature of data set [3]: Solubility by forward light-scatter (NEPHELOstar Plus). Type of data set: physicochemical. The settings on record: 1% DMSO in DPBS pH 7.1, 37 °C; for solubility (in words): 2 h.
Data set [4] deals with Mycobacterium avium (ATCC15796). Description: Activity against Mycobacterium avium, luciferase reporter strain luminescence. The settings on record: 10 μM; active when inhibition >50%.
The test system of data set [5] is P. falciparum. The settings on record: from originating P. falciparum / Open Source Malaria projects; cited from earlier work.
Data set [6] deals with E. coli (NCTC 12923) +PMBN. Briefly: Activity against E. coli in the presence of PMBN (30 μg/mL). The class given is cell-based, Escherichia coli. The settings on record: 100 μM, active when inhibition >80%.
The test system of data set [7] is S. aureus (ATCC 9144). Briefly: Activity against S. aureus, microbroth growth inhibition (OD600). The settings on record: 100 μM; active when inhibition >80%. The class given is cell-based, Staphylococcus aureus.
The subject of data set [8] is A. baumannii (ATCC 17978) +PMBN. Briefly: Activity against A. baumannii in the presence of PMBN (30 μg/mL). The class given is cell-based, Acinetobacter baumannii. The settings on record: 100 μM, active when inhibition >80%.
In data set [9] the test system is Mycobacterium abscessus (NCTC 14045). Description: Activity against Mycobacterium abscessus, luciferase reporter strain luminescence. The settings on record: 10 μM; active when inhibition >50%. For orientation: In a reporter assay the amount or activity of a reporter protein is the signal.
Data set [10] has as its system SARS-CoV-2 nonstructural protein 12 (Nsp12). The settings on record: from originating SARS-CoV-2 Nsp12 project; cited from earlier work.
Data set [11] has as its system Huh7 cells. The settings on record: reported after plate MHT-0001 was prepared, reference not printed at the place; cited from earlier work.
The subject of data set [12] is Gram-negative strain. Briefly: Activity on a Gram-negative strain without PMBN (strain not given). The class given is cell-based. The settings on record: 100 μM, strain not named.
Data set [13] relates to DENV serotype 2. The settings on record: from originating DENV RdRp project; reference not printed at the place; cited from earlier work.

For `Oc1ccc(CN2CCN(c3ccccc3F)CC2)c2cccnc12` [RA-0020681], the “unwinding or ATPase inhibitory effect (in words)” value in [1] was “no unwinding or ATPase inhibitory effect”. Further, in data set [2], the “activity on C. albicans (in words)” value is “selective activity”. For the same compound, the “solubility (in words)” value in data set [3] was “poor”.
In the case of `COc1ccc2c(c1)nc(-c1c[nH]c3cc(N4CCOCC4)ccc13)c1[nH]ccc12` [WEL2.76], the “activity on M. avium (in words)” value in data set [4] is “no noticeable effect”. The “antiplasmodial activity / inhibition against P. falciparum (in words)” value in [5] is “promising antiplasmodial activity”. In addition, the “activity on E. coli +PMBN (in words)” value in [6] is listed as “strong activity”. For the same compound, the “activity on C. albicans (in words)” value in data set [2] is reported as “no noticeable effect”. For the same compound, the “activity on S. aureus (in words)” value in data set [7] is recorded as “strong activity”. The “activity on A. baumannii +PMBN (in words)” value in data set [8] is reported as “strong activity”. Besides, the “activity on M. abscessus (in words)” value in data set [9] is “no noticeable effect”. In addition, the “solubility (in words)” value in data set [3] is recorded as “poor”.
Take `COc1cc2nc(Nc3cc(C)[nH]n3)nc(Nc3cc(C)[nH]n3)c2cc1OC` [MA20]: the “activity on C. albicans (in words)” value in data set [2] is on record as “selective activity”.
Take `CC1=CC(=O)C=C(C)C1=NOS(=O)(=O)c1ccc(Cl)cc1` [RA-0001351]: in [3], the “solubility (in words)” value was “good solubility”. Also, the “potency on Nsp12 (in words)” value in data set [10] is reported as “potent”.
As to `CC1(C)C2CCC1(C)C(OCC(O)CNC1CCCCC1)C2` (centres unmarked) [RA-0020564], the “activity on E. coli +PMBN (in words)” value in data set [6] (listed as well G6) is “narrow–spectrum activity”. Also, the CC50 in data set [11] was 14.5 µM. Besides, the solubility at 2 h in data set [3] (DPBS with 1% DMSO, aqueous buffer, kinetic from dmso stock) was more than 100 µM.
Consider `COc1ccc(-c2ccc(CNc3ccnc(S(=O)(=O)F)c3)s2)cc1` [RA-0020649-01], for which the “activity on C. albicans (in words)” value in data set [2] is recorded as “selective activity”.
`Nc1ncnc2cc(-c3cccc(S(N)(=O)=O)c3)sc12` [YNW5-2]: the “activity on M. avium (in words)” value in data set [4] is recorded as “showed activity”. Also, in data set [5], the “antiplasmodial activity / inhibition against P. falciparum (in words)” value was “potent and selective inhibition”. Further, in data set [6], the “activity on E. coli +PMBN (in words)” value is “narrow–spectrum activity”.
Turning to `COc1ccc2c(c1)nc(-c1c[nH]c3ccc(N4CCSCC4)cc13)c1[nH]ccc12` [WEL2.92a], the “activity on a Gram-negative strain (in words)” value in data set [12] is on record as “showed activity”.
Consider `O=C(Nc1ccccc1)C(Cl)C(=O)c1ccccc1` (centres unmarked) [RA-0020661-01], for which, in [8], the “activity on A. baumannii +PMBN (in words)” value is listed as “narrow–spectrum activity”.
Take `O=S(=O)(Nc1ccc(Oc2ccccc2)cc1)c1cccc(C(F)(F)F)c1` [EC055-1]: in [6], the “activity on E. coli +PMBN (in words)” value is on record as “narrow–spectrum activity”.
Same read-out and setting: under `CC(C)c1cc(Nc2nc(N[C@@H](CO)C3CCCCC3)nc3[nH]ncc23)n[nH]1` [WYH-9] stands “narrow–spectrum activity”.
For `Cc1ccc(C)c(N2CCN(C(=O)C3CCN(c4ncnc5c4sc4ncccc45)CC3)CC2)c1` [RA-0020572], the “antiviral activity on DENV serotype 2” value in data set [13] is 2.7 µM.

As usually defined, the CC50 is the concentration at which the toxic effect on the cells reaches its halfway point. As usually defined, the solubility is how much of the substance goes into solution per volume.
